One experiment deals with GP2d cells (KRAS G12D). The experiment is described as follows: Cell-based pERK HTRF assay in GP2d cell (Biological Example 2). Particulars: GP2d, GP2d (KRAS G12D) cells, pERK HTRF. Put shortly:
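60 min compound, 0.25% DMSO, 9-pt half-log curve from 1 μM or 100 nM; DMEM/10% FBS.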
(In general: Time-resolved FRET reads energy transfer from a long-lived donor to a nearby acceptor.)

The target of experiment [1] is T1, Avi-KRAS G12V (1-169) GppNHp/RAF1 RBD-3xFLAG (52-151) (Homo sapiens, UniProt P01116, G12V).
T1 construct: Avi-KRAS G12V (1-169)
The experiment is described as follows: Raf1-KRAS G12V-GppNHP disruption HTRF assay (Biological Example 1). It is filed as binding. Particulars: KRAS G12V, GppNHp-loaded; Table 11. Put shortly:
(§1)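 Using HTRF, the loss of KRAS–effector RAF1 complex was quantified in 50 mM Tris pH 7.5 buffer with 100 mM NaCl and 0.1% BSA. The protein step and reagent step ran 1 h each at room temperature. Activity normalized with DMSO taken as 100%.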

The target of experiment [2] is T2, Avi-KRAS G12D (1-169) GppNHp/RAF1 RBD-3xFLAG (52-151) (Homo sapiens, UniProt P01116, G12D).
T2 construct: Avi-KRAS G12D (1-169)
The experiment is described as follows: Raf1-KRAS G12D-GppNHP disruption HTRF assay (Biological Example 1). It is filed as binding. Conditions: KRAS G12D, GppNHp-loaded; Table 11. In short, it runs like this: as §1

For experiment [3], the target named is T3, Avi-KRAS WT (1-169) GppNHp/RAF1 RBD-3xFLAG (52-151) (Homo sapiens, UniProt P01116).
T3 construct: Avi-KRAS WT (1-169)
The experiment can be described thus: Raf1-KRAS WT-GppNHP disruption HTRF assay (Biological Example 1). It is filed as binding. Conditions: KRAS WT, GppNHp-loaded; Table 11. In short, it runs like this: as §1

The target in experiment [4] is T4, Avi-KRAS G12R (1-169) GppNHp/RAF1 RBD-3xFLAG (52-151) (Homo sapiens, UniProt P01116, G12R).
T4 construct: Avi-KRAS G12R (1-169)
The experiment can be described thus: Raf1-KRAS G12R-GppNHP disruption HTRF assay (Biological Example 1). Conditions: KRAS G12R, GppNHp-loaded; Table 11. In kind it is binding. How it is done:
A protein:protein interaction (PPI) Homogeneous Time Resolved Fluorescence (HTRF) assay was used to determine the effectiveness of compounds of the present disclosure in disrupting KRAS protein and effector RAF1 binding.
The assay buffer included: 50 mM Tris pH 7.5, 100 mM NaCl, 5 mM MgCl2, 0.1% BSA, 0.01% Tween, and 10% DMSO. The bead buffer included: 50 mM Tris pH 7.5, and 0.01% Tween 20. Assay volume of 20 μL was used in a 384 well plate-low volume format.
The HTRF assay employed the following protocol:
Protein mix was prepared in assay buffer, and dispensed on plates, 10 μL per well, then incubated for 1 h at room temperature, with 700 rpm shaking, Reagents mix was prepared and dispensed on plates, 10 μL per well, then incubated for 1 h at room temperature, with 700 rpm shaking.
Data was reported as percentage of activity, with DMSO as 100%. Data was plotted and analyzed using Prism 8.

The structures appear in SMILES notation. pIC50: −log10 of the molar value.

In US20260042764A1, “COMPOSITIONS AND METHODS FOR INHIBITION OF KRAS” (TheRas, Inc., priority 2022, published 2026) one finds IC50 data, which are given here for 18 compounds.

One may read the pIC50 as the IC50 on a negative log10 scale, so that one unit is a factor of ten.

T2 sequence (P01116 1-169 isoform P01116-2 G12D): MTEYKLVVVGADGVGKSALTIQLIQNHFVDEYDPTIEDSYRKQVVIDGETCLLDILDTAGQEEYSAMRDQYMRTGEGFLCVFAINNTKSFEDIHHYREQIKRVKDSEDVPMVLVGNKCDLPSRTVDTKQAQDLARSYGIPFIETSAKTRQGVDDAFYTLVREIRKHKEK
T1 sequence (P01116 1-169 isoform P01116-2 G12V): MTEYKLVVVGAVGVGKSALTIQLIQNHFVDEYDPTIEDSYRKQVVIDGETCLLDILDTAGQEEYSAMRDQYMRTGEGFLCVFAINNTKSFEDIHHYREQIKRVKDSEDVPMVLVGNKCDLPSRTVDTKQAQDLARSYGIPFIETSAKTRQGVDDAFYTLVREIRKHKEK
T4 sequence (P01116 1-169 isoform P01116-2 G12R): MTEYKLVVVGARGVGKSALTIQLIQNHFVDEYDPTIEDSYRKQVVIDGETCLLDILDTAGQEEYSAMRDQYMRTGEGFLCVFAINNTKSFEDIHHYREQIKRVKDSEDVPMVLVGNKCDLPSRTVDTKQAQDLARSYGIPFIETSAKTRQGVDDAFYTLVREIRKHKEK
T3 sequence (P01116 1-169 isoform P01116-2): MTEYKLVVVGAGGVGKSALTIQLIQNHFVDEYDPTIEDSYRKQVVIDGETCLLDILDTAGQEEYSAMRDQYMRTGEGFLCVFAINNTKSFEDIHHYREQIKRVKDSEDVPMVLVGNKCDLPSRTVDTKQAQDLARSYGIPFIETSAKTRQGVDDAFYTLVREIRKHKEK

As to `CN(c1nc(OCC23CCCN2CCC3)nc2c(F)c(-c3ccc(F)c4sc(N)c(C#N)c34)c(C(F)(F)F)cc12)[C@H]1C[C@@H](O)C1` [Compound 25], the pIC50 (in the experiment with GP2d cells (KRAS G12D); in experiment [1]; in experiment [2]; in experiment [3]; in experiment [4]) was more than 7.00 each time.
As for `CCN(c1nc(OC[C@@]23CCCN2C[C@H](F)C3)nc2c(F)c(-c3ccc(F)c4sc(N)c(C#N)c34)c(C(F)(F)F)cc12)[C@H]1C[C@@H](O)C1` [Compound 26, 2-amino-4-[4-[ethyl-(3-hydroxycyclobutyl)amino]-8-fluoro-2-[[(2R,8S)-2-fluoro-1,2,3,5,6,7-hexahydropyrrolizin-8-yl]methoxy]-6-(trifluoromethyl)quinazolin-7-yl]-7-fluoro-benzothiophene-3-carbonitrile], the pIC50 with GP2d cells (KRAS G12D) is more than 7.00; in experiment [1] it was 6.00 to 7.00; in experiment [2], more than 7.00; in experiment [3], 6.00 to 7.00; in experiment [4], 6.00 to 7.00.
In the case of `CO[C@H]1C[C@@H](N(C)c2nc(OC[C@@]34CCCN3C[C@H](F)C4)nc3c(F)c(-c4ccc(F)c5sc(N)c(C#N)c45)c(C(F)(F)F)cc23)C1` [Compound 27], the pIC50 was more than 7.00 with GP2d cells (KRAS G12D); 5.00 to 6.00 in experiment [1]; 6.00 to 7.00 in experiment [2]; 6.00 to 7.00 in experiment [3]; 6.00 to 7.00 in experiment [4].
For `CN(c1nc(OC[C@@]23CCCN2C[C@H](F)C3)nc2c(F)c(-c3ccc(F)c4sc(N)c(C#N)c34)ccc12)[C@H]1C[C@@H](O)C1` [Compound 28], the pIC50 is 6.00 to 7.00 in the experiment on GP2d cells (KRAS G12D); 5.00 to 6.00 in experiment [1]; 6.00 to 7.00 in experiment [2]; 6.00 to 7.00 in experiment [3]; 5.00 to 6.00 in experiment [4].
With `CN(c1nc(OC[C@@]23CCCN2C[C@H](F)C3)nc2cc(-c3ccc(F)c4sc(N)c(C#N)c34)c(C#N)cc12)[C@H]1C[C@@H](O)C1` [Compound 29], the pIC50 in the experiment on GP2d cells (KRAS G12D) is 6.00 to 7.00; in experiment [1] it was 5.00 to 6.00; in experiment [2], 5.00 to 6.00; in experiment [3], 5.00 to 6.00; in experiment [4], 5.00 to 6.00.
Regarding `CN(c1nc(OC[C@@]23CCCN2C[C@H](F)C3)nc2c(C#N)c(-c3ccc(F)c4sc(N)c(C#N)c34)c(Cl)cc12)[C@H]1C[C@@H](O)C1` [Compound 30, 7-(2-amino-3-cyano-7-fluorobenzo[b]thiophen-4-yl)-6-chloro-2-(((2R,7aS)-2-fluorotetrahydro-1H-pyrrolizin-7a(5H)-yl)methoxy)-4-(((1s,3R)-3-hydroxycyclobutyl)(methyl)amino)quinazoline-8-carbonitrile], the pIC50 (with GP2d cells (KRAS G12D); in experiment [1]; in experiment [2]; in experiment [3]; in experiment [4]) was 6.00 to 7.00 each time.
In the case of `CN(c1nc(OC[C@@]23CCCN2C[C@H](F)C3)nc2c(F)c(-c3ccc(F)c4sc(N)c(C#N)c34)c(C(F)(F)F)cc12)[C@H]1C[C@@](C)(O)C1` [Compound 31, 2-amino-7-fluoro-4-(8-fluoro-2-(((2R,7aS)-2-fluorotetrahydro-1H-pyrrolizin-7a(5H)-yl)methoxy)-4-(((1s,3R)-3-hydroxy-3-methylcyclobutyl)(methyl)amino)-6-(trifluoromethyl)quinazolin-7-yl)benzo[b]thiophene-3-carbonitrile], the pIC50 in the experiment on GP2d cells (KRAS G12D) is more than 7.00; in experiment [1], 5.00 to 6.00; in experiment [2], 6.00 to 7.00; in experiment [3], 6.00 to 7.00; in experiment [4], 6.00 to 7.00.
For the compound `CN(c1nc(OC[C@@]23CCCN2C[C@H](F)C3)nc2c(F)c(-c3ccc(F)c4sc(N)c(C#N)c34)c(C#N)cc12)[C@H]1C[C@@H](O)C1` [Compound 32, 7-(2-amino-3-cyano-7-fluoro-benzothiophen-4-yl)-8-fluoro-2-[[(2R,8S)-2-fluoro-1,2,3,5,6,7-hexahydropyrrolizin-8-yl]methoxy]-4-[(3-hydroxycyclobutyl)-methyl-amino]quinazoline-6-carbonitrile], the pIC50 in the experiment with GP2d cells (KRAS G12D) was 6.00 to 7.00; in experiment [1], 5.00 to 6.00; in experiment [2] it was 6.00 to 7.00; in experiment [3], 6.00 to 7.00; in experiment [4] it was 6.00 to 7.00.
In the case of `CN(c1nc(OC[C@@]23CCCN2C[C@H](F)C3)nc2cc(-c3ccc(F)c4sc(N)c(C#N)c34)c(C(F)(F)F)cc12)[C@H]1C[C@@H](O)C1` [Compound 33], the negative-log IC50 (pIC50) (in the experiment with GP2d cells (KRAS G12D); in experiment [1]; in experiment [2]; in experiment [3]; in experiment [4]) was 6.00 to 7.00 in each case.
`CN1CCC[C@H]1COc1nc(N(C)[C@H]2C[C@@H](O)C2)c2cc(C(F)(F)F)c(-c3ccc(F)c4sc(N)c(C#N)c34)c(F)c2n1` [Compound 35]: the pIC50 in the experiment with GP2d cells (KRAS G12D) was more than 7.00; in experiment [1], 6.00 to 7.00; in experiment [2] it was 6.00 to 7.00; in experiment [3], 6.00 to 7.00; in experiment [4] it was 6.00 to 7.00.
Consider `CN(c1nc(OC[C@@]23CCCN2C[C@H](F)C3)nc2c(F)c(-c3ccc(F)c4sc(N)c(C#N)c34)c(C(F)(F)F)cc12)[C@@H]1C[C@H](O)[C@@H]1CO` [Compound 37], for which the pIC50 in the experiment with GP2d cells (KRAS G12D) is more than 7.00; in experiment [1], 6.00 to 7.00; in experiment [2] it was more than 7.00; in experiment [3], more than 7.00; in experiment [4], more than 7.00.
As to `CO[C@@H]1C[C@@H](COc2nc(N(C)C3CC(O)C3)c3cc(C(F)(F)F)c(-c4ccc(F)c5sc(N)c(C#N)c45)c(F)c3n2)N(C)C1` (stereo partly drawn) [Compound 40], the pIC50 in the experiment with GP2d cells (KRAS G12D) is more than 7.00; in experiment [1] it was 6.00 to 7.00; in experiment [2], 6.00 to 7.00; in experiment [3], 6.00 to 7.00; in experiment [4] it was 6.00 to 7.00.
Take `CN(c1nc(OC[C@@H]2CC3(CC3)CN2C)nc2c(F)c(-c3ccc(F)c4sc(N)c(C#N)c34)c(C(F)(F)F)cc12)C1CC(O)C1` (stereo partly drawn) [Compound 41]: the pIC50 with GP2d cells (KRAS G12D) is more than 7.00; in experiment [1], 6.00 to 7.00; in experiment [2] it was 6.00 to 7.00; in experiment [3], 6.00 to 7.00; in experiment [4], 6.00 to 7.00.
On to `N#Cc1c(N)sc2c(F)ccc(-c3c(C(F)(F)F)cc4c(N5CCC(CO)CC5)nc(OC[C@@]56CCCN5C[C@H](F)C6)nc4c3F)c12` [Compound 44, 2-amino-7-fluoro-4-(8-fluoro-2-(((2R,7aS)-2-fluorotetrahydro-1H-pyrrolizin-7a(5H)-yl)methoxy)-4-(4-(hydroxymethyl)piperidin-1-yl)-6-(trifluoromethyl)quinazolin-7-yl)benzo[b]thiophene-3-carbonitrile], for which the pIC50 in the experiment on GP2d cells (KRAS G12D) is more than 7.00; in experiment [1], 6.00 to 7.00; in experiment [2] it was 6.00 to 7.00; in experiment [3] it was 6.00 to 7.00; in experiment [4], 6.00 to 7.00.
In the case of `N#Cc1c(N)sc2c(F)ccc(-c3c(C(F)(F)F)cc4c(N5CCC6(CC5)CC(O)C6)nc(OC[C@@]56CCCN5C[C@H](F)C6)nc4c3F)c12` [Compound 45], the pIC50 (in the experiment on GP2d cells (KRAS G12D); in experiment [1]; in experiment [2]; in experiment [3]; in experiment [4]) was 6.00 to 7.00 throughout.
As to `N#Cc1c(N)sc2c(F)ccc(-c3c(C(F)(F)F)cc4c(N5CC6CCC(C5)C6CO)nc(OC[C@@]56CCCN5C[C@H](F)C6)nc4c3F)c12` (stereo partly drawn) [Compound 47], the pIC50 was more than 7.00 with GP2d cells (KRAS G12D); 6.00 to 7.00 in experiment [1]; more than 7.00 in experiment [2]; 6.00 to 7.00 in experiment [3]; 6.00 to 7.00 in experiment [4].
For the compound `CC1(CO)CCN(c2nc(OCC34CCCN3CC(F)C4)nc3c(F)c(-c4ccc(F)c5sc(N)c(C#N)c45)c(C(F)(F)F)cc23)CC1` (stereo not drawn) [Compound 48], the negative logarithm of the IC50 (pIC50) was more than 7.00 in the experiment with GP2d cells (KRAS G12D); 6.00 to 7.00 in experiment [1]; 6.00 to 7.00 in experiment [2]; 6.00 to 7.00 in experiment [3]; 6.00 to 7.00 in experiment [4].
On to `C[C@@H](O)C1CCN(c2nc(OC[C@@]34CCCN3C[C@H](F)C4)nc3c(F)c(-c4ccc(F)c5sc(N)c(C#N)c45)c(C(F)(F)F)cc23)CC1` [Compound 49], for which the pIC50 was more than 7.00 in the experiment with GP2d cells (KRAS G12D); 6.00 to 7.00 in experiment [1]; more than 7.00 in experiment [2]; 6.00 to 7.00 in experiment [3]; 6.00 to 7.00 in experiment [4].
